Like-named read-outs stand apart in the source and are kept apart here. Non-standard residues stand in square brackets, D forms with d. Residues, ends and D or L forms follow the SMILES beside them. Groups on a side chain read outwards from the residue. ξ: configuration not given here. *: point of attachment. X3 = C[N+](C)(Cc1cn([C@@H](CCCNC(=N)N)C(=O)*)nn1)C[B-](F)(F)F; X2 = C[N+](C)(Cc1cn([C@@H](CCCCN)C(=O)*)nn1)C[B-](F)(F)F; DOTA = O=C(O)CN1CCN(CC(=O)O)CCN(CC(=O)*)CCN(CC(=O)O)CC1; X5 = CC(C)[C@H](C(=O)*)n1cc(C[N+](C)(C)C[B-](F)(F)F)nn1; X4 = C[N+](C)(Cc1cn(-c2ccc(C(=O)*)cc2)nn1)C[B-](F)(F)F; dTyr(3-I) = N[C@H](Cc1ccc(O)c(I)c1)C(=O)O; 2Nal = N[C@@H](Cc1ccc2ccccc2c1)C(=O)O; X1 = OCC1O[C@H](*)C(O)C(O)[C@H]1O; pS = N[C@@H](COP(=O)(O)O)C(=O)O; dNMeOrn = CN[C@H](CCCN)C(=O)O; 4Amb = NCc1ccc(C(=O)O)cc1; Mercaptoacetyl = O=C(CS)*; ξNMeOrn = CNC(CCCN)C(=O)O; 4Abz = Nc1ccc(C(=O)O)cc1; X6 = CC(=O)c1ccc(N*)cc1; Dap = NC[C@H](N)C(=O)O

The term IC50 denotes the concentration at which inhibition is half-maximal. The term logP denotes a log measure of how a compound divides between an organic and an aqueous phase.

One data set addresses T1, human CXCR4 (Homo sapiens, UniProt P61073).
T1 construct: using CXCR4 positive Jurkat human T-cell leukemia cells; endogenous in cells; host or cells: Jurkat human T-cell leukemia cells
Briefly: Competitive binding assay to human CXCR4, Jurkat cells, [125I]FC131 radioligand.

The target in another data set is T2, murine CXCR4 (Mus musculus, UniProt P70658).
T2 construct: The murine CXCR4 expressing cell line Ep-Myc1080; endogenous in cells; host or cells: Eμ-Myc1080 mouse B-cell lymphoma cells
Briefly: Competitive binding assay to murine CXCR4, Eμ-Myc1080 cells, [125I]CPCR4.3 radioligand. How it is done: Competition studies addressing the human CXCR4 were performed using CXCR4 positive Jurkat human T-cell leukemia cells and ^125I-FC131 (^125I-2), addressing the murine CXCR4, Ep-Myc1080 mouse B-cell lymphoma cells and ^125I-CPCR4.3 (Demmer et al. A Conformationally Frozen Peptoid Boosts CXCR4 Affinity and Anti-HIV Activity. Angewandte Chemie International Edition. 2012; 51:8110-8113) as the radioligand were utilized as described previously (Poschenrieder et al., The influence of different metal-chelate conjugates of pentixafor on the CXCR4 affinity. EJNMMI research. 2016; 6:1-8).

Data set [1] can be described thus: Lipophilicity, shake flask n-octanol/PBS. Type of data set: physicochemical. The conditions noted are these: Table 1d. How it is done:
To a solution of app. 0.5 MBq of radiolabeled peptide in 500 μL of PBS (pH 7.4), 500 μL of octanol were added (n=6). Vials were vortexed vigorously for 3 min. To achieve quantitative phase separation, the vials were centrifuged at 14,600×g for 6 min in a Biofuge 15 (Heraeus Sepatech, Osterode, Germany). The activity concentrations in 100 μL-samples of both the aqueous and the organic phase were measured in a γ-counter. Both the partition coefficient Pow, which is defined as the molar concentration ratio of a single species A between octanol and an aqueous phase at equilibrium, and log Pow, which is an important parameter used to characterize lipophilicity of a compound, were calculated.
Internalization and cell efflux studies of the respective ligands were performed using a previously published protocol (Poschenrieder et al., First 18F-Labeled Pentixafor-Based Imaging Agent for PET Imaging of CXCR4 Expression In Vivo. 2016). The distribution coefficients of the respective ^68Ga- and […] peptides in octanol and PBS buffer were determined applying the shake flask method as described previously (Weineisen et al., Synthesis and preclinical evaluation of DOTAGA-conjugated PSMA ligands for functional imaging and endoradiotherapy of prostate cancer. EJNMMI Research. 2014; 1:1-15).
Lipophilicity was measured using the shake flask method. The logarithm of the partition coefficient P, where P is the ratio of activity distribution of the respective ^68Ga/^177Lu-labeled peptide in n-octanol and PBS are listed in Table 2.

The mark [2] stands for this setting: Table 1d, orn side chain modifications, read-out: IC50 [nM] to hCXCR4.
[3] abbreviates: Table 1b, ^natGa metal complexes, Jurkat cells, [^125I]FC-131, read-out: IC50 [nM] to hCXCR4 [^natGa].
Where [4] appears, read: Table 1b, ^natY metal complexes, Jurkat cells, [^125I]FC-131, read-out: IC50 [nM] to hCXCR4 [^natY].
[5] abbreviates: ^natGa complexes, Jurkat cells, [^125I]FC131 0.1 nM, RT 2 h, mean ± SD (n = 3), read-out: IC50 [nM] for ^natGa-complexes and human CXCR4.
The mark [6] stands for this setting: Table 1b, 18F-labeling precursors, Jurkat cells, [^125I]FC-131, read-out: IC50 [nM] to hCXCR4.
Setting [7] is: Table 1b, ^natLu metal complexes, Jurkat cells, [^125I]FC-131, read-out: IC50 [nM] to hCXCR4 [^natLu].
[8] abbreviates: ^natLu complexes, Jurkat cells, [^125I]FC131 0.1 nM, RT 2 h, mean ± SD (n = 3), read-out: IC50 [nM] for ^natLu-complexes and human CXCR4.

T1 sequence (P61073 whole entry): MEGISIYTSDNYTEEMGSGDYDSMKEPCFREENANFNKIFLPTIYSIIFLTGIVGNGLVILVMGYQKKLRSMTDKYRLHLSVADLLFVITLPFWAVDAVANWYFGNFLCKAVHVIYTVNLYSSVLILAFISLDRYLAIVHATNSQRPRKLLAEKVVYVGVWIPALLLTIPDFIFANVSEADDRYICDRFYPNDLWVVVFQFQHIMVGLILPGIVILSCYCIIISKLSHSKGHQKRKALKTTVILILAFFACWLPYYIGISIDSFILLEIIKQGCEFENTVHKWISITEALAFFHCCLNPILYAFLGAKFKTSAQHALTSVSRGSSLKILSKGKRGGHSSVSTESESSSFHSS
T2 sequence (P70658 whole entry): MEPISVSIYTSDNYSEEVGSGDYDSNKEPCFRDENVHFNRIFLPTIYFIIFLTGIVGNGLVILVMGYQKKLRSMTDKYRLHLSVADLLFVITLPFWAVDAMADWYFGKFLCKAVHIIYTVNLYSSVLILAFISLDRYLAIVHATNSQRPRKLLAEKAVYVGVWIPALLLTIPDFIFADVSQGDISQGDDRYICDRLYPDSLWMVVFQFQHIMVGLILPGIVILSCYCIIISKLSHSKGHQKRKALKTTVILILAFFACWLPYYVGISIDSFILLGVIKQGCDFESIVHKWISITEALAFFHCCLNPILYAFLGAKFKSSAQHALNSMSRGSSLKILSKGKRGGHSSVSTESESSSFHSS

As to `CC(=O)c1ccc(NC(=O)[C@@H](C)NC(=O)[C@@H](CCCNC(=N)N)NC(=O)[C@@H](CNC(=O)CO/N=C\c2ccc(F)cc2)NC(=O)CCS[C@H]2OC(CO)[C@@H](O[C@@H]3OC(CO)[C@@H](O)C(O)C3O)C(O)C2O)cc1` (some centres unmarked) [F5], on human CXCR4 (setting [2]), the IC50 was 4.6 ± 0.7 nM.
On to “cyclo[i-yorn′([^natLu]DOTA-rG-(4-amino)benzoyl-)RNaIG [^natLu-P4]”, for which the “mIC50[nM] ^natLu complexes and murine CXCR4” value on murine CXCR4 (^natLu complexes, Eμ-Myc1080 mouse B-cell lymphoma cells, [^125I]CPCR4.3, mean ± SD (n = 3)) was found to be 37.1 ± 2.9 nM.
Consider `CN1C(=O)[C@@H](Cc2ccc(O)c(I)c2)NC(=O)CNC(=O)[C@H](Cc2ccc3ccccc3c2)NC(=O)[C@H](CCCNC(=N)N)NC(=O)[C@H]1CCCNC(=O)c1ccc(NC(=O)CNC(=O)[C@H](CN)NC(=O)CN2CCN(CC(=O)O)CCN(CC(=O)O)CCN(CC(=O)O)CC2)cc1` [P2] (cyclo([2Nal]G[dTyr(3-I)][dNMeOrn]([4Abz-Gly-Dap-DOTA])R)), for which the IC50 turned out to be 3.6 ± 0.7 nM at human CXCR4 (setting [3]), 4.1 ± 1.3 nM on human CXCR4 (setting [4]) and 3.6 ± 0.7 nM on human CXCR4 (setting [5]).
As to `CN1C(=O)[C@@H](Cc2ccc(O)cc2)NC(=O)CNC(=O)[C@H](Cc2ccc3ccccc3c2)NC(=O)[C@H](CCCNC(=N)N)NC(=O)[C@H]1CCCNC(=O)c1ccc(NC(=O)CNC(=O)[C@H](CCCNC(=N)N)n2cc(C[N+](C)(C)C[B-](F)(F)F)nn2)cc1` [F3b, cyclo[-yorn′(AMBF3(methyl(1H-1,2,3-triazol-4-yl)-rG-4-amino)benzoyl-)RNaIG]] (cyclo([2Nal]G[dY][dNMeOrn]([4Abz-Gly-X3])R)), on human CXCR4 (setting [6]), the IC50 came out at 2.4 ± 0.8 nM.
For the molecule “cyclo[i-yorn′([^natLu]DOTA-dapG-(4-amino)benzoyl-)RNaIG [^natLu-P2]”, on human CXCR4 (hCXCR4, versus ligand with glycine linker only), the “improvement of binding affinity by insertion of cationic amino acids in the linker” value is reported as “almost two-fold”.
For `C[C@@H](NC(=O)[C@@H](CCCNC(=N)N)NC(=O)[C@H](CC(=O)O)NC(=O)[C@H](CC(=O)O)NC(=O)[C@H](CC(=O)O)NC(=O)CS)C(=O)Nc1ccc(C(=O)O)cc1` [T2] (Mercaptoacetyl-DDD[dR][dA][4Abz]-OH), in data set [1], the logP is −2.2. For the same molecule, on human CXCR4 (setting [2]), the half-inhibitory concentration (IC50) is 85.7 ± 5.1 nM.
With `CC(C)[C@H](C(=O)NCC(=O)Nc1ccc(C(=O)NCCC[C@@H]2C(=O)N[C@@H](CCCNC(=N)N)C(=O)N[C@@H](Cc3ccc4ccccc4c3)C(=O)NCC(=O)N[C@H](Cc3ccc(O)c(I)c3)C(=O)N2C)cc1)n1cc(C[N+](C)(C)C[B-](F)(F)F)nn1` [F2, cyclo[i-yorn′(AMBF3(methyl(1H-1,2,3-triazol-4-yl)-vG-4-amino)benzoyl-)RNaIG]] (cyclo([2Nal]G[dTyr(3-I)][dNMeOrn]([4Abz-Gly-X5])R)), the IC50 on human CXCR4 (setting [6]) was determined as 65.2 ± 10 nM.
For “cyclo[i-yorn′(DOTA-ra-(4-amino)benzoyl-)RNaIG [P5]”, the “increase in affinity compared to P2” value at human CXCR4 (hCXCR4) was “almost two-fold”.
`C[C@@H](NC(=O)[C@@H](CCCNC(=N)N)NC(=O)[C@H](CN)NC(=O)[C@H](CN)NC(=O)[C@H](CN)NC(=O)CS)C(=O)Nc1ccc(C(=O)O)cc1` [T3] (Mercaptoacetyl-[Dap][Dap][Dap][dR][dA][4Abz]-OH): the logP in data set [1] was −1.5. Also, the IC50 at human CXCR4 (setting [2]) was 18.8 ± 8.5 nM.
`CN1C(=O)[C@@H](Cc2ccc(O)cc2)NC(=O)CNC(=O)[C@H](Cc2ccc3ccccc3c2)NC(=O)[C@H](CCCNC(=N)N)NC(=O)[C@H]1CCCNC(=O)c1ccc(CNC(=O)CN2CCN(CC(=O)O)CCN(CC(=O)O)CCN(CC(=O)O)CC2)cc1` [compound 3, cyclo(D-Tyr^1-D-[NMe]Orn^2(AMBS-DOTA)-Arg^3-Nal^4-Gly^5), reference compound] (cyclo([dY][dNMeOrn]([4Amb-DOTA])R[2Nal]G)) returned an IC50 on murine CXCR4 greater than 1000 nM.
Take `CN1C(=O)[C@@H](Cc2ccc(O)c(I)c2)NC(=O)CNC(=O)[C@H](Cc2ccc3ccccc3c2)NC(=O)[C@H](CCCNC(=N)N)NC(=O)[C@H]1CCCNC(=O)c1ccc(-n2cc(C[N+](C)(C)C[B-](F)(F)F)nn2)cc1` [F1, cyclo[i-yorn′(AMBF3(methyl(1H-1,2,3-triazol-4-yl)4-amino)benzoyl-)RNaIG]] (cyclo([2Nal]G[dTyr(3-I)][dNMeOrn](X4)R)): on human CXCR4 (setting [6]), the IC50 was 134 ± 47 nM.
Consider `CC(=O)c1ccc(NC(=O)[C@@H](C)NC(=O)[C@@H](CCCNC(=N)N)NC(=O)[C@@H](CO)NC(=O)[C@@H](CO)NC(=O)[C@@H](CO)NC(=O)CS)cc1` [T1] (Mercaptoacetyl-[dS][dS][dS][dR][dA]-X6), for which the IC50 on human CXCR4 (setting [2]) was 22.9 ± 3.9 nM.
Consider `CN1C(=O)[C@@H](Cc2ccc(O)c(I)c2)NC(=O)CNC(=O)[C@H](Cc2ccc3ccccc3c2)NC(=O)[C@H](CCCNC(=N)N)NC(=O)C1CCCNC(=O)c1ccc(NC(=O)CNC(=O)[C@H](CCCCN)NC(=O)CN2CCN(CC(=O)O)CCN(CC(=O)O)CCN(CC(=O)O)CC2)cc1` (stereo partly drawn) [P3] (cyclo([2Nal]G[dTyr(3-I)][ξNMeOrn]([4Abz-Gly-Lys-DOTA])R)), for which the IC50 was 38 ± 25 nM on human CXCR4 (Table 1b, ^natBi metal complexes, Jurkat cells, [^125I]FC-131, read-out: IC50 [nM] to hCXCR4 [^natBi]); 2.4 ± 0.1 nM at human CXCR4 (setting [3]); 3.6 ± 1.1 nM at human CXCR4 (setting [7]); 2.4 ± 0.2 nM on human CXCR4 (setting [4]); 2.4 ± 0.1 nM on human CXCR4 (setting [5]); 3.6 ± 1.1 nM at human CXCR4 (setting [8]).
In the case of `CN1C(=O)[C@@H](Cc2ccc(O)cc2)NC(=O)CNC(=O)[C@H](Cc2ccc3ccccc3c2)NC(=O)[C@H](CCCNC(=N)N)NC(=O)C1CCCNC(=O)c1ccc(NC(=O)CNC(=O)[C@H](CCCCN)NC(=O)CN2CCN(CC(=O)O)CCN(CC(=O)O)CCN(CC(=O)O)CC2)cc1` (stereo partly drawn) [P3b] (cyclo([2Nal]G[dY][ξNMeOrn]([4Abz-Gly-Lys-DOTA])R)), the IC50 worked out at 8.9 ± 3.8 nM at human CXCR4 (setting [3]); 8 ± 3.1 nM on human CXCR4 (setting [7]); 6.3 ± 2.5 nM at human CXCR4 (setting [4]); 8.9 ± 3.8 nM on human CXCR4 (setting [5]); 8 ± 3.1 nM on human CXCR4 (setting [8]).
For `CN1C(=O)[C@@H](Cc2ccc(O)c(I)c2)NC(=O)CNC(=O)[C@H](Cc2ccc3ccccc3c2)NC(=O)[C@H](CCCNC(=N)N)NC(=O)[C@H]1CCCNC(=O)c1ccc(NC(=O)CNC(=O)[C@H](CCCCN)n2cc(C[N+](C)(C)C[B-](F)(F)F)nn2)cc1` [F4, cyclo[i-yorn′(AMBF3(methyl(1H-1,2,3-triazol-4-yl)-kG-4-amino)benzoyl-)RNaIG]] (cyclo([2Nal]G[dTyr(3-I)][dNMeOrn]([4Abz-Gly-X2])R)), the IC50 at human CXCR4 (setting [6]) was determined as 3.8 ± 0.9 nM.
Molecule `C[C@@H](NC(=O)[C@@H](CCCNC(=N)N)NC(=O)[C@H](CO)NC(=O)[C@H](COP(=O)(O)O)NC(=O)[C@H](CO[C@H]1OC(CO)[C@H](O)C(O)C1O)NC(=O)CS)C(=O)Nc1ccc(C(=O)O)cc1` (some centres unmarked) [T4] (Mercaptoacetyl-S(X1)[pS]S[dR][dA][4Abz]-OH) registered a logP in data set [1] of −2.2. Further, on human CXCR4 (setting [2]), the IC50 is 213 ± 22 nM.
On to `CN1C(=O)[C@H](Cc2ccc(O)c(I)c2)NC(=O)CNC(=O)[C@@H](Cc2ccc3ccccc3c2)NC(=O)[C@@H](CCCNC(=N)N)NC(=O)[C@@H]1CCCNC(=O)c1ccc(NC(=O)[C@@H](CC(=O)O)NC(=O)CN2CCN(CC(=O)O)CCN(CC(=O)O)CCN(CC(=O)O)CC2)cc1` [P1], for which the IC50 at human CXCR4 (setting [7]) and on human CXCR4 (setting [8]) was 106 ± 10 nM in each case.

The record behind these values is patent US11639373B2, “Therapeutic and diagnostic agents for cancer” (TECHNISCHE UNIVERSITÄT MÜNCHEN, priority 2018, dated 2023).
